System: TIL CD8+ population
Assay: Flow cytometry analysis of TIL of UA-fed mice with APTK tumors
Type: in vivo, C57BL/6 mice
Experimental: (FIG. 2A) Scheme of CD3+ T-cell activation and analysis for various timepoints. (FIG. 2B) Reduced effector molecule expression on in vitro treated cells (n=3 pooled from three independent experiments). Isolated T-cells were stimulated for 48 h at the presence of UA or DMSO in the indicated doses. Data are mean ± SD, *p < 0.05 by two-sided t-test. (FIG. 2C) Reduced effector molecule expression on in vitro treated cells (n=3 pooled from three independent experiments). Isolated T-cells were stimulated for 48 h at the presence of UA or DMSO in the indicated doses. Data are mean ± SD, *p < 0.05 by two-sided t-test. (FIG. 2D) Quantification of T memory stem cells (TSCM: CD44^-CD62L^+Sca1^hi) after 24 h, 48 h and 96 h post stimulation with aCD3/aCD28 stimulation beads as indicated in (A) (n=4 pooled from four independent experiments). Data are mean ± SD, statistical analysis was performed via two-sided t-test (*p < 0.05; **p < 0.01; n.s. not significant). (FIG. 2E) Mitochondrial membrane potential within naïve CD62L^+CD44^-CD8^+ T cells, with TMRM^lo representing cells with low mitochondrial membrane potential. Cells were stimulated for 48 h as depicted in (A). Data are mean ± SD, n=4; ***p <0.001 by two-sided t-test. Experiment was repeated twice in independent experiments. (FIG. 2F) Representative histogram and quantification of memory marker CD95 expression in CD62L^+CD44^-CD8^+ cells, 48 hours after in vitro stimulation. Data are mean ± SD; n=5; ****p < 0.0001 by two-sided t-test. Data depicts one of two independent experiments. (FIG. 2G) Analysis of TIL of UA-fed mice, treated as depicted in FIG. 1J. Percentage of TSCM within CD8+ (G; n=7), as well as TCF1 (H; n=7) PD1^hi,Tim3^hi and CTLA4hi (I-K, all n=6) in the TIL CD8+ population are shown. Data are mean ± SD, statistical analysis was performed via two-sided t-test (*p < 0.05; **p < 0.01;, ***p <0.001.). Data depicts one of two independent experiments. (FIG. 2H) The same experiment as FIG. 2G with TCF1 (n=7) in the TIL CD8+ population. (FIG. 2I) The same experiment as FIG. 2G with PD1^hi (n=6) in the TIL CD8+ population. (FIG. 2J) The same experiment as FIG. 2G with Tim3^hi (n=6) in the TIL CD8+ population. (FIG. 2K) The same experiment as FIG. 2G with CTLA4hi (n=6) in the TIL CD8+ population. (FIG. 2L) Flow cytometry readout of ex vivo cytokine release of previously isolated TIL upon re-stimulation with PMA/ionomycin. Data are mean ± SD with n=7 per group. Statistical analysis was performed by two-sided t-test (**p < 0.01). One out of two independent experiments are shown. (FIG. 2M) Flow cytometry readout of ex vivo cytokine release of previously isolated TIL upon re-stimulation with PMA/ionomycin. Data are mean ± SD with n=7 per group. Statistical analysis was performed by two-sided t-test (**p < 0.01). One out of two independent experiments are shown.
(FIG. 5L) UA induces PGC-1α expression in stimulated CD8+ cells. PGC-1α MFI at 48 h upon stimulation, as assessed by intracellular staining, is shown (n=3). One of two independent experiments are shown. Data are mean ± SD, statistical analysis was performed by two-sided t-test (p**<0.01). (FIG. 5M) Mitochondrial content of TIL CD8+ cells harvested from APTK-carrying mice, fed UA or control diet as depicted in FIG. 1J. Assessed by Mitotracker Red staining. Data are mean ± SD, *p < 0.05 by two-sided t-test. (FIG. 5N) Mitophagy and subsequent PGAM5 release drive PGC-1α upregulation. PGC-1α expression of CD8+ cells derived from Pink1^-/- KO mice upon 48 h stimulation in vitro in the presence of UA or DMSO control (n=4). Data are mean ± SD, statistical analysis was performed by two-sided t-test. Depicts one of two independent experiments. (FIG. 5O) Mitophagy and subsequent PGAM5 release drive PGC-1 α upregulation. PGC-1α expression of CD8+ cells derived from PGAM5^-^/- mice upon 48 h stimulation in vitro in the presence of UA or DMSO control (n=4). Data are mean ± SD, statistical analysis was performed by two-sided t-test. […]

[1] = ex vivo restimulation with PMA/ionomycin

With O=c1oc2cc(O)ccc2c2ccc(O)cc12 [Urolithin A] the “mitochondrial content in TIL of APTK tumors” value (UA or control diet) was “increased mitochondrial content”, the “CD8+CD44loCD62LhiSca1hi T cells (TSCM) in APTK-induced tumors” value (UA-fed mice) was “marked increase” and the “TCF1 expression in tumor infiltrating CD8+ T cells” value (UA-fed mice) was “increased expression”. For the same compound, the “dendritic cells (DCs), TAMs, MDSC subsets in TME” value (UA-fed mice) was “no change”, the “exhaustion marker CTLA-4 in CD8+ T cells” value (UA-fed mice) was “reduction” and the “exhaustion marker PD-1 in CD8+ T cells” value (UA-fed mice) was “reduction”. The “exhaustion marker Tim3 in CD8+ T cells” value (UA-fed mice) was “reduction”, the “IFNg induction in tumor infiltrating CD8+ T cells” value [1] was “stronger induction” and the “TNFa induction in tumor infiltrating CD8+ T cells” value [1] was “stronger induction”.

Reference: patent US20230277669A1, “USES OF UROLITHINS” (Amazentis SA, priority 2022, published 2023)
